In patent US10975056B2 (GlaxoSmithKline Intellectual Property Development Limited, priority 2016, dated 2021):
Where a name gives a salt, the structure may show the parent alone. Read-outs that look alike come from different tables or passages of the source.

Key:
DNMT1 = DNMT1 (Homo sapiens, UniProt P26358); assay: DNMT1 biochemical activity, breaklight assay and/or SPA assay
human DNMT3a/3l = human DNMT3a/3l (Homo sapiens (Human), UniProt Q9Y6K1); assay: DNMT3a/3l breaklight assay; assay type: biochemical
Procedure: DNMT3a/3l Breakliqht Assay
DNMT3a/3l breaklight in vitro assays were conducted in a total volume of 50 μl in a standard 384 well format, using black non-binding surface microplates (Corning #3575). […] Negative control wells used 5 μl of DNMT3a/3l and 5 μl of oligonucleotide but also included 200 μM SAH. All reagents were made up in 1× assay buffer (20 mM Tris pH 7.4, 100 mM NaCl, 1.5 mM EDTA, 0.1 mM MgCl2, 1 mM CHAPS and 1 mM DTT). The reaction was incubated at 37° C. for 90 min and then stopped with the addition of 40 μl detection reagent. Detection reagent, made up in 1× Gla assay buffer (20 mM Tris pH 8.0, 80 mM NaCl, 0.75 mM MgCl2, 0.01% Triton X100 and 1 mM DTT) has a final concentration of 200 μM SAH (Sigma #A9384) and 0.0008 units/μl Gla1 restriction endonuclease (Sibenzyme #E494). Following addition of the detection reagent the plate was incubated in the dark at room temperature for 5 hr. Fluorescence intensity was then measured on the PHERAstar FS (BMG Labtech) at Ex 485 nm and Em 520 nm, with a gain of 400 and an integration time of 100 ms.

DNMT3B = DNMT3B (Homo sapiens (Human), UniProt Q9UBC3); assay: DNMT3B breaklight assay; assay type: biochemical
[1] = test system: erythroid progenitor cells (EPCs); assay: Fetal hemoglobin (HbF) ELISA in day 7 erythroid progenitor cells; assay type: cell-based, human; conditions: Homo sapiens, Erythroid progenitor cell, HbF ELISA, day 7 EPCs, 5 days; read-out: EPC ELISA (pEC50 category) (converted);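 note: for fetal hemoglobin induction normalized to vehicle-treated cells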
Method in brief: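 Day 7 EPCs from human bone marrow CD34+ cells were plated at 1,000 cells/well in media with 3 U/mL rhEPO. They were exposed to a 22-point dilution ([…]) for 5 days at 37 °C. Lysate HbF was measured by sandwich ELISA (OD450) and normalized to DMSO control wells.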

[2] = binned activity in either the breaklight or the SPA assay, read-out: DNMT1 BioChemical (pIC50 category) (converted)
[3] = read-out: DNMT3A Breaklight IC50
[4] = read-out: DNMT3B Breaklight IC50
[5] = binned activity in either the breaklight or the SPA assay
[6] = repeated experimental runs, read-out: average IC50, DNMT3A breaklight assay
[7] = repeated experimental runs, read-out: average IC50, DNMT3B breaklight assay
[8] = breaklight assay and/or SPA assay, repeated experimental runs, read-out: average pIC50 against DNMT1 (converted)
[9] = breaklight assay and/or SPA assay, repeated experimental runs

Sequence of human DNMT3a/3l (Q9Y6K1 whole entry, looked up): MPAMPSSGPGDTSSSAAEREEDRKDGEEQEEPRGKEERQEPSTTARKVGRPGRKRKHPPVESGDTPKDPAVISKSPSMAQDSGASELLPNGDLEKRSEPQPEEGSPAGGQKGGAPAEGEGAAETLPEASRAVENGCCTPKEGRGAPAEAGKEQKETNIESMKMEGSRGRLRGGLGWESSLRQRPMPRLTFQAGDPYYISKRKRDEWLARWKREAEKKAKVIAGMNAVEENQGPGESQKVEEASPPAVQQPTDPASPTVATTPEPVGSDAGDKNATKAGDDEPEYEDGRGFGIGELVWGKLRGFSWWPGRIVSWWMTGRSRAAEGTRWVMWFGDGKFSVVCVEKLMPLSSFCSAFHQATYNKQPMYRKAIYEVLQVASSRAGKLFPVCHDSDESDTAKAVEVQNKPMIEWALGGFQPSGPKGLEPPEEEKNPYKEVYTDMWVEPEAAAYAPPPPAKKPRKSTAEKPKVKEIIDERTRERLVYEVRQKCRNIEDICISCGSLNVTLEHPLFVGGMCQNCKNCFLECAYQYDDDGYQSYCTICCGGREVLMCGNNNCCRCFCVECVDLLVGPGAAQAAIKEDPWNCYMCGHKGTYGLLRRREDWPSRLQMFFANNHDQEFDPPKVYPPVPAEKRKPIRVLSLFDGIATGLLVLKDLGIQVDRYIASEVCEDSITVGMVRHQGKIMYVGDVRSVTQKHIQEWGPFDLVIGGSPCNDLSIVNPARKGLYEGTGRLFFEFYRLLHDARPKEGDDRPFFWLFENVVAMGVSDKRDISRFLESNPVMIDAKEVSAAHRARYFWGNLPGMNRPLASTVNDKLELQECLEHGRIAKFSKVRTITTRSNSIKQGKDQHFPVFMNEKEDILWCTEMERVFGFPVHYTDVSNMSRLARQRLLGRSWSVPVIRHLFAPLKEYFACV
Sequence of human DNMT3a/3l (Q9UJW3 whole entry partner, looked up): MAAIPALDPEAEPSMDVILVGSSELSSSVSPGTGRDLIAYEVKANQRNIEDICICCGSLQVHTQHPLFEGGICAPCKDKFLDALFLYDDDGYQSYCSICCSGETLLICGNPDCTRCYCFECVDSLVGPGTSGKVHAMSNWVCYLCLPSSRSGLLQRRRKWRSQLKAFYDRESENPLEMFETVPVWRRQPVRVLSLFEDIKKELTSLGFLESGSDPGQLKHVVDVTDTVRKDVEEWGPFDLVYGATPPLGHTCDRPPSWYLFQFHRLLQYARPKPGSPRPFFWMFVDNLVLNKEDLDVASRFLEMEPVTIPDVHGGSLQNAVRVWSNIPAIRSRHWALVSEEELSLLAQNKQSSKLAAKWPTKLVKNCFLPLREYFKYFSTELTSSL
Sequence of DNMT1 (P26358 whole entry, looked up): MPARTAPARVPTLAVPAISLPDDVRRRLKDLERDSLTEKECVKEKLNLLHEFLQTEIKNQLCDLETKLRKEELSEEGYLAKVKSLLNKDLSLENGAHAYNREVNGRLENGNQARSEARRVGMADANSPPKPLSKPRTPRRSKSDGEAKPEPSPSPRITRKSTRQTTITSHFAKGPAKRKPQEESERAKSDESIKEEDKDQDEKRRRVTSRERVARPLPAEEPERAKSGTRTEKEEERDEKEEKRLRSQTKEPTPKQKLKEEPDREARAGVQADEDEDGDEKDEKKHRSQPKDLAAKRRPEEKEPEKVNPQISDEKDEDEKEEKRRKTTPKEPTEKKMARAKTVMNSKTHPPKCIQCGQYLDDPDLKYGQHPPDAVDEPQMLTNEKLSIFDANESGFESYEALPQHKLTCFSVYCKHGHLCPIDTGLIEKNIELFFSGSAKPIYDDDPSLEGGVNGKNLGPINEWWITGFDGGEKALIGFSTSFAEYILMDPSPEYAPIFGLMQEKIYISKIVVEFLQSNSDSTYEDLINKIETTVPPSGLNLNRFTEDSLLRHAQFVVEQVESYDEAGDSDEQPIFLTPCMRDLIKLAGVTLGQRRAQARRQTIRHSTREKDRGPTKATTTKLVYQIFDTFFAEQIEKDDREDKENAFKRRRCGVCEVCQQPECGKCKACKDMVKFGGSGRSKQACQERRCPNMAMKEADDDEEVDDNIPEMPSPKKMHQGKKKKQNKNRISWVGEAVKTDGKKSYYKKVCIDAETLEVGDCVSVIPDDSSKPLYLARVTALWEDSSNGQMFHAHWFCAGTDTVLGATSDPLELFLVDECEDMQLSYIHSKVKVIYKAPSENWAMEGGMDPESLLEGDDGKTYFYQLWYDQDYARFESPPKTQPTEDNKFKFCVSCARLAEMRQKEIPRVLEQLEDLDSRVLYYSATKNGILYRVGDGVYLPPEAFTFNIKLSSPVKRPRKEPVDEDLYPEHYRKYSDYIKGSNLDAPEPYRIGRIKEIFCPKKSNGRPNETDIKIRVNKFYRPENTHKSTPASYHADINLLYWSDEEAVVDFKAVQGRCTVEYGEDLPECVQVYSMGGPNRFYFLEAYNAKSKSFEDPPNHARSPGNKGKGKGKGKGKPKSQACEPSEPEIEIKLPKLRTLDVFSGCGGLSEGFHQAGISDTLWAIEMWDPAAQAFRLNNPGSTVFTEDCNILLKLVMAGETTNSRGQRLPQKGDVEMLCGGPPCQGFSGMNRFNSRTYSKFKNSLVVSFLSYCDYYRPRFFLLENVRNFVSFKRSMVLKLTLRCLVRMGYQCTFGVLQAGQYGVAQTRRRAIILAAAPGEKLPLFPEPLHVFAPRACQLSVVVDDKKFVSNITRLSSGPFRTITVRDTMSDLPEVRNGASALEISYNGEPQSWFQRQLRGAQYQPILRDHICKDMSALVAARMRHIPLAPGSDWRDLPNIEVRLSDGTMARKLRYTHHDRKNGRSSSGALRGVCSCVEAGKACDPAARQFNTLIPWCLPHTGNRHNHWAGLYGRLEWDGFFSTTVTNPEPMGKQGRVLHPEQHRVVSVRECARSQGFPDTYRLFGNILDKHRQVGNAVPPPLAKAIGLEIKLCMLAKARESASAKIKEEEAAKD

| IC50 (DNMT1; [2]) [µM] | IC50 (human DNMT3a/3l; [3]) [µM] | IC50 (DNMT3B; [4]) [µM] | EC50 [1] [µM] | DNMT1 BioChemical (pIC50 category) (DNMT1; [5]) | IC50 (human DNMT3a/3l; [6]) [µM] | IC50 (DNMT3B; [7]) [µM] | IC50 (DNMT1; [8]) [µM] | average pIC50 against DNMT1 (DNMT1; [9]) | SMILES | average pIC50 against DNMT1 (DNMT1; breaklight assay and/or SPA assay, repeated experimental runs, Trifluoroacetic Acid Salt) |
| --- | --- | --- | --- | --- | --- | --- | --- | --- | --- | --- |
| 1 to 31.6 | 417 | > 500 | > 31.6 |  |  |  |  |  | CCc1c(C#N)c(N)nc(SC(C(N)=O)c2ccccc2)c1C#N (centres unmarked) [Example 1, 2-[(6-amino-3,5-dicyano-4-ethylpyridin-2-yl)sulfanyl]-2-phenylacetamide] |  |
| 0.316 to 1 | > 500 | > 500 | > 31.6 |  |  |  |  |  | CCc1c(C#N)c(N)nc(S[C@@H](C(N)=O)c2ccccc2)c1C#N [Example 2, (R)-[(6-amino-3,5-dicyano-4-ethylpyridin-2-yl)sulfanyl]-2-phenylacetamide] |  |
|  | > 500 | > 500 | < 0.316 | D (Category D: ≥6.5) | > 500 | > 500 |  |  | CCCN1CCCN(c2nc(SC(C(N)=O)c3ccccc3)c(C#N)c(CC)c2C#N)CC1 (centres unmarked) [Example 6, 2-((3,5-dicyano-4-ethyl-6-(4-propyl-1,4-diazepan-1-yl)pyridin-2-yl)thio)-2-phenylacetamide] |  |
|  | > 500 | > 500 | < 0.316 | D (Category D: ≥6.5) | > 500 | > 500 |  |  | CCc1c(C#N)c(SC(C(N)=O)c2ccccc2)nc(N2CCCN(CC)CC2)c1C#N (centres unmarked) [Example 7, 2-{[3,5-dicyano-4-ethyl-6-(4-ethyl-1,4-diazepan-1-yl)pyridin-2-yl]sulfanyl}-2-phenylacetamide] |  |
| 0.316 to 1 | > 500 | > 500 | 0.316 to 1 |  | > 500 | > 500 |  |  | CCc1c(C#N)c(SC(C(N)=O)c2ccccc2)nc(N2CCC(N3CCNC3=O)CC2)c1C#N (centres unmarked) [Example 47, 2-((3,5-Dicyano-4-ethyl-6-(4-(2-oxoimidazolidin-1-yl)piperidin-1-yl)pyridin-2-yl)thio)-2-phenylacetamide] |  |
|  | > 500 | > 500 | 0.316 to 1 | D (Category D: ≥6.5) |  |  |  |  | CCc1c(C#N)c(SC(C(N)=O)c2ccccc2)nc(N2CC[C@H](O)C2)c1C#N (stereo partly drawn) [Example 49, 2-((3,5-Dicyano-4-ethyl-6-((S)-3-hydroxypyrrolidin-1-yl)pyridin-2-yl)thio)-2-phenylacetamide] |  |
| 0.316 to 1 | > 500 | > 500 | < 0.316 |  |  |  |  |  | CCc1c(C#N)c(SC(C(N)=O)c2ccccc2)nc(N2CCNC(=O)C2)c1C#N (centres unmarked) [Example 50, 2-((3,5-Dicyano-4-ethyl-6-(3-oxopiperazin-1-yl)pyridin-2-yl)thio)-2-phenylacetamide] |  |
| 0.316 to 1 | > 500 | > 500 | > 31.6 |  |  |  |  |  | N#Cc1c(N)nc(SC(C(N)=O)c2ccccc2)c(C#N)c1C1CC1 (centres unmarked) [Example 51, 2-[(6-amino-3,5-dicyano-4-cyclopropyl-2-pyridyl)sulfanyl]-2-phenyl-acetamide] |  |
| 0.316 to 1 | > 500 | > 500 | 1 to 31.6 |  | > 500 | > 500 |  |  | CCc1c(C#N)c(NC)nc(SC(C(N)=O)c2ccccc2)c1C#N (centres unmarked) [Example 52, 2-((3,5-Dicyano-4-ethyl-6-(methylamino)pyridin-2-yl)thio)-2-phenylacetamide] |  |
| 1 to 31.6 | > 500 | > 500 | 1 to 31.6 |  |  |  |  |  | CCc1c(C#N)c(SC(C(N)=O)c2ccccc2)nc(N(C)CCOC)c1C#N (centres unmarked) [Example 53, 2-((3,5-Dicyano-4-ethyl-6-((2-methoxyethyl)(methyl)amino)pyridin-2-yl)thio)-2-phenylacetamide] |  |
| 0.316 to 1 | > 500 | > 500 | 0.316 to 1 |  |  |  |  |  | CCc1c(C#N)c(SC(C(N)=O)c2ccccc2)nc(N2CCC(=O)CC2)c1C#N (centres unmarked) [Example 59, 2-((3,5-dicyano-4-ethyl-6-(4-oxopiperidin-1-yl)pyridin-2-yl)thio)-2-phenylacetamide] |  |
| 1 to 31.6 |  | > 250 | 1 to 31.6 |  |  |  | ≥ 1 |  | CCc1c(C#N)c(SCc2ccc(=O)[nH]c2)nc(N(C)C)c1C#N [Example 74, 2-(Dimethylamino)-4-ethyl-6-(((6-oxo-1,6-dihydropyridin-3-yl)methyl)thio)pyridine-3,5-dicarbonitrile] |  |
|  |  | > 250 | 0.316 to 1 |  |  |  |  |  | CCc1c(C#N)c(SCc2ccc(S(N)(=O)=O)cc2)nc(N2CCCN(C)CC2)c1C#N [Example 76, 4-(((3,5-Dicyano-4-ethyl-6-(4-methyl-1,4-diazepan-1-yl)pyridin-2-yl)thio)methyl)benzenesulfonamide] |  |
|  |  | > 250 | < 0.316 | D (Category D: ≥6.5) |  |  |  | > 6.5 | CCc1c(C#N)c(SCc2ccc(CNC(C)=O)cc2)nc(N2CCCN(C)CC2)c1C#N [Example 77, N-(4-(((3,5-Dicyano-4-ethyl-6-(4-methyl-1,4-diazepan-1-yl)pyridin-2-yl)thio)methyl)benzyl)acetamide] |  |
| 0.316 to 1 |  | > 250 | > 31.6 |  |  |  | ≥ 1 |  | CCc1c(C#N)c(SCc2ccccc2)nc(N2CCC(N)CC2)c1C#N [Example 81, 2-(4-Aminopiperidin-1-yl)-6-(benzylthio)-4-ethylpyridine-3,5-dicarbonitrile] |  |
|  |  | > 250 | < 0.316 | D (Category D: ≥6.5) |  |  |  | > 6.5 | CCc1c(C#N)c(SCc2ccc(CC(N)=O)cc2)nc(N2CCCN(C)CC2)c1C#N [Example 83, 2-(4-(((3,5-dicyano-4-ethyl-6-(4-methyl-1,4-diazepan-1-yl)pyridin-2-yl)thio)methyl)phenyl)acetamide] |  |
|  |  | > 250 | < 0.316 | D (Category D: ≥6.5) |  |  |  |  | CCc1c(C#N)c(SCc2ccc(CC(=O)NC)cc2)nc(N2CCCN(C)CC2)c1C#N [Example 84, 2-(4-(((3,5-Dicyano-4-ethyl-6-(4-methyl-1,4-diazepan-1-yl)pyridin-2-yl)thio)methyl)phenyl)-N-methylacetamide] |  |
|  |  | > 250 | < 0.316 | D (Category D: ≥6.5) |  |  | 0.2 | > 6.5 | CCc1c(C#N)c(SCc2ccc(CNC(=O)CO)cc2)nc(N2CCCN(C)CC2)c1C#N [Example 86, N-(4-(((3,5-Dicyano-4-ethyl-6-(4-methyl-1,4-diazepan-1-yl)pyridin-2-yl)thio)methyl)benzyl)-2-hydroxyacetamide] |  |
|  |  | 254 | < 0.316 | D (Category D: ≥6.5) |  |  |  |  | CCc1c(C#N)c(SCc2ccc(S(=O)(=O)NC)cc2)nc(N2CCCN(C)CC2)c1C#N [Example 104, 4-(((3,5-Dicyano-4-ethyl-6-(4-methyl-1,4-diazepan-1-yl)pyridin-2-yl)thio)methyl)-N-methylbenzenesulfonamide] |  |

| SMILES | IC50 (DNMT1; [2]) [µM] | IC50 (human DNMT3a/3l; [3]) [µM] | IC50 (DNMT3B; [4]) [µM] | EC50 [1] [µM] | DNMT1 BioChemical (pIC50 category) (DNMT1; [5]) | IC50 (human DNMT3a/3l; [6]) [µM] | IC50 (DNMT3B; [7]) [µM] | IC50 (DNMT1; [8]) [µM] | average pIC50 against DNMT1 (DNMT1; [9]) | average pIC50 against DNMT1 (DNMT1; breaklight assay and/or SPA assay, repeated experimental runs, Trifluoroacetic Acid Salt) |
| --- | --- | --- | --- | --- | --- | --- | --- | --- | --- | --- |
| CCc1c(C#N)c(SC(C(N)=O)c2ccccc2)nc(N2CCC(NC(=O)[C@H](C)N)CC2)c1C#N (stereo partly drawn) [Example 138, (2S)-2-Amino-N-(1-(6-((2-amino-2-oxo-1-phenylethyl)thio)-3,5-dicyano-4-ethylpyridin-2-yl)piperidin-4-yl)propanamide, Trifluoroacetic Acid Salt] |  |  | 167 | < 0.316 | D (Category D: ≥6.5) |  |  | 0.1 |  | > 6.5 |
